Test results from publication PMC8950477 (Pharmaceuticals, 2022).
Read-outs that look alike come from different tables or passages of the source.

Experiments:
[1] = WSS-1 cell viability assay (resazurin); format: cell-based; conditions: human, WSS-1 cells (renal epithelium, adenovirus 5 transformed), concentration-response curve
Description: The assays were performed on two cell lines, as described below. […] WSS-1 (ATCC® CRL2029 ™): the cells used in this work were a healthy human cell line obtained from the renal epithelium of a fetus and transformed with adenovirus 5 DNA (ATCC: The Global Bioresource Center c). […] WSS-1 cells were cultured in high-glucose DMEM (Vitrocell) according to the provider’s recommendations (ATCC: The Global Bioresource Center c). The media were supplemented with 10% fetal bovine serum (FBS) and 50 μg/mL gentamicin. All cell lines were grown in a cell culture bottle with a 0.22 μm pore membrane filter on the lid, allowing the circulation of CO2. WSS-1 cells grew adherently, while cells of the K562 strain grew in suspension. All strains were maintained at 35 °C, at 5% CO2. In addition, all cell lines were routinely evaluated before freezing for storage in liquid nitrogen in the vapor phase for the detection of mycoplasma.
For the evaluation of the cytotoxic actions of the synthesized compounds, resazurin (Sigma-Aldrich) was used at a concentration of 0.1 mg/mL. The resazurin salt (Alamar Blue®) has a blue, nonfluorescent color and can be reduced to resorufin, which is pink and highly fluorescent. This process is an indicator of cell proliferation and fluorescent/colorimetric cytotoxicity with redox properties.
The first step of this assay consisted of plating the cells, with 5 × 10^4 cells per well. In this experiment, black plates with transparent bottoms and 96 wells (Greiner Bio-One) were used, and after plating, the cells were returned to the incubator for a period of approximately 20 h to allow growth and cell adhesion. The next step consisted of adding the obtained compounds, followed by incubation for a period of 46 h. Then, resazurin was added at a final concentration per well of 0.01 mg/mL, and immediately, the first fluorescence reading (λex = 560 nm; λex = 590 nm) (zero time) was performed using a FlexStation 3 microplate reader (Molecular Devices). After the first reading, the plate was returned to the incubator, and after two hours, the second reading was performed, completing 48 h of incubation with the compounds. As a negative control, cells treated with DMSO at a concentration of 0.5% instead of the obtained compounds were used. […] Preliminary screening of the compounds was carried out at fixed concentrations (1 and 10 μM) in triplicate. […] It should be noted that each experiment was carried out at least in duplicate. The fluorescence value at time zero (time immediately after the addition of resazurin) in each well was subtracted from the values obtained after two hours of incubation with resazurin. The average value with zero-time subtraction was used as 100% cell viability and was applied to calculate the percentage of cell viability in each well. […]

[2] = Solubility observed during concentration-response curve; format: physicochemical; conditions: in the cell assay concentration-response curve
Description: Subsequently, a concentration-response curve was constructed for compounds 2g and 2h.

K562 cells = test: K562 cell viability assay (resazurin); format: cell-based, human; conditions: for CC50: Homo sapiens, K562 cells, concentration-response curve
Description: The assays were performed on two cell lines, as described below. […] The K562 strain was grown in RPMI-1640 medium (R8758, Sigma-Aldrich, St. Louis, MO, USA) according to the provider’s recommendations and the literature [27, 28]. […] The media were supplemented with 10% fetal bovine serum (FBS) and 50 μg/mL gentamicin. All cell lines were grown in a cell culture bottle with a 0.22 μm pore membrane filter on the lid, allowing the circulation of CO2. […] All strains were maintained at 35 °C, at 5% CO2.
For the evaluation of the cytotoxic actions of the synthesized compounds, resazurin (Sigma-Aldrich) was used at a concentration of 0.1 mg/mL.
Standardization of this assay was not carried out in this project; thus, the following ideal values were used for the execution of the experiment: quantity of cells of 2 × 10^4 cell/mL, incubation time with the compounds of 48 h, incubation time with resazurin of one hour and DMSO used within the limit of 0.5%. As the cells grew in suspension, a long incubation period for adherence was not necessary. After plating, the cells were incubated for one hour, and then the prepared compounds were added and incubated for 47 h. After this period, resazurin was added at a final concentration per well of 0.01 mg/mL, and the first fluorescence reading (λex = 560 nm; λex = 590 nm) (zero time) was performed immediately using FlexStation 3 microplates (Molecular Devices). After the first reading, the plate was returned to the incubator, and after one hour, the second reading was performed, completing 48 h of incubation with the compounds. The compounds were solubilized in DMSO (Sigma-Aldrich) at concentrations ranging from 16.66 to 50 mM and maintained at −30 °C.
Analyses of the data obtained and graph construction were performed with the aid of GraphPad Prism 6 software (GraphPad Software Inc., San Diego, CA, USA).

[3] = WSS-1 cells, unit inferred, read-out: CC50 WSS1 (Figure 5)
[4] = WSS-1 healthy cells, 48 h incubation, resazurin, read-out: CC50 WSS-1
[5] = 48 h incubation, resazurin, read-out: CC50 K562
[6] = unit inferred, read-out: CC50 K562 (Figure 5)

Row | SMILES | melting point | CC50 (K562 cells; [5]) | also measured
1 | Cc1ccc(Nc2ccc3cccc(Cl)c3n2)cc1Nc1nccc(-c2cccnc2)n1 [2h, N^1-(8-Chloroquinolin-2-yl)-4-methyl-N^3-(4-(pyridin-3-yl)pyrimidin-2-yl)benzene-1,3-diamine] | 237 to 239 °C | 6200 nM | CC50 at 48 h [1, 3]: 4920 nM; CC50 at 48 h [1, 4]: 4900 nM; solubility [2]: low solubility at concentrations above 30 μM; CC50 (K562 cells; [6]): 6250 nM
2 | Cc1ccc(NC(=O)c2ccc(CN3CCN(C)CC3)cc2)cc1Nc1nccc(-c2cccnc2)n1 [IMT, Imatinib, reference compound] |  | 80 nM | 
3 | Cc1ccc(Nc2ccnc3ccccc23)cc1Nc1nccc(-c2cccnc2)n1 [2g, 4-Methyl-N^3-(4-(pyridin-3-yl)pyrimidin-2-yl)-N^1-(quinolin-4-yl)benzene-1,3-diamine] | 153 to 157 °C | 900 nM | CC50 at 48 h [1, 3]: 215 nM; CC50 at 48 h [1, 4]: 200 nM; CC50 (K562 cells; [6]): 874 nM; percentage of cell viability inhibition (K562 cells; K562 screening at 10 µM (Figure 4)): higher percentage of cell viability inhibition than IMT and BST
4 | CCOC(=O)c1cnc2ccccc2c1Nc1ccc(C)c(Nc2nccc(-c3cccnc3)n2)c1 [2e, Ethyl 4-((4-methyl-3-((4-(pyridin-3-yl)pyrimidin-2-yl)amino)phenyl)amino)quinoline-3-carboxylate] | 208 to 211 °C |  | 

Now from value to compound, other results behind:

Row | melting point | SMILES | CC50 (K562 cells; [5]) | also measured
5 | 145 to 146 °C | Cc1ccc(NC(=O)Cn2cc(CCCOc3ccnc4cc(Cl)ccc34)nn2)cc1Nc1nccc(-c2cccnc2)n1 [4b, 2-(4-(3-((7-Chloroquinolin-4-yl)oxy)propyl)-1H-1,2,3-triazol-1-yl)-N-(4-methyl-3-((4-(pyridin-3-yl)pyrimidin-2-yl)amino)phenyl)acetamide] |  | 
6 | 187 to 188 °C | Cc1ccc(-n2cc(COc3ccnc4cc(Cl)ccc34)nn2)cc1Nc1nccc(-c2cccnc2)n1 [3a, N-(5-(4-(((7-Chloroquinolin-4-yl)oxy)methyl)-1H-1,2,3-triazol-1-yl)-2-methylphenyl)-4-(pyridin-3-yl)pyrimidin-2-amine] |  | 
7 | 107 to 108 °C | Cc1ccc(-n2cc(CCCOc3ccnc4cc(Cl)ccc34)nn2)cc1Nc1nccc(-c2cccnc2)n1 [3b, N-(5-(4-(3-((7-Chloroquinolin-4-yl)oxy)propyl)-1H-1,2,3-triazol-1-yl)-2-methylphenyl)-4-(pyridin-3-yl)pyrimidin-2-amine] |  | 
8 | 245 to 247 °C | Cc1ccc(NC(=O)Cn2cc(COc3ccnc4cc(Cl)ccc34)nn2)cc1Nc1nccc(-c2cccnc2)n1 [4a, 2-(4-(((7-Chloroquinolin-4-yl)oxy)methyl)-1H-1,2,3-triazol-1-yl)-N-(4-methyl-3-((4-(pyridin-3-yl)pyrimidin-2-yl)amino)phenyl)acetamide] |  | 
